The text below walks through data of the NIST ThermoML archive (doi:10.1021/je901063s).

A short description of data set [1]: of the first substance listed, at infinite dilution; xn = mol fraction of the nth substance listed. The following applies: 101 kPa, Liquid, flow mixing microcalorimeter, x1 = 0.
Data set [2] in a line: activity coefficient (dimensionless); of the first substance listed, at infinite dilution; xn = mol fraction of the nth substance listed. The following applies: 101 kPa, Liquid, inert gas stripping, headspace analysis in two variants - the classical and the relative, Rayleigh distillation, and circulation still, x1 = 0.

Each structure is given as a SMILES string. Several values for one entry are separate records, joined by “and”; a condition that tells them apart may be missing. Identical values can stand only once. Numbers after ± are expanded uncertainties.

Take `CCC(C)CO` (stereo unspecified) [2-methyl-1-butanol] + O: the results for the partial molar enthalpy in data set [1] (288.15 K), in data set [1] (298.15 K) and in data set [1] (308.15 K) were -2.67 ± 0.0956 kcal/mol, -1.98 ± 0.0478 kcal/mol and -1.29 ± 0.0239 kcal/mol, respectively. The activity coefficient in data set [2] (273.35 K) was 86.3 ± 5.2; in data set [2] (283.15 K) it was 117 ± 7; in data set [2] (293.15 K), 138 and 134; in data set [2] (303.15 K), 158 and 151; in data set [2] (313.15 K) it was 163 and 173; in data set [2] (323.15 K) it was 180 and 173. For the same compound, the activity coefficient in data set [2] (333.15 K) was 170 and 179; in data set [2] (343.15 K) it was 169 ± 10; in data set [2] (353.15 K), 160 ± 10; in data set [2] (363.15 K), 162 ± 10.
As for `CCC(C)(C)O` [2-methylbutan-2-ol] + O, the activity coefficient in data set [2] (273.35 K) was 18.3 ± 1.1; in data set [2] (283.15 K), 24.5 ± 1.5; in data set [2] (293.15 K), 31.7 and 34.6; in data set [2] (303.15 K), 41.3 and 39.2; in data set [2] (313.15 K) it was 49 and 46.5; in data set [2] (323.15 K), 52.3 and 56.9. For the same compound, the activity coefficient is 59.3 and 61.4 in data set [2] (333.15 K); 64.2 ± 3.9 in data set [2] (343.15 K); 67.1 ± 4 in data set [2] (353.15 K); 75.4 ± 4.5 in data set [2] (361.25 K); 73.9 ± 4.4 in data set [2] (371.45 K).
For the compound `CC(C)C(C)O` (stereo unspecified) [3-methyl-2-butanol] + O, the activity coefficient in data set [2] (273.35 K) came out at 43.5 ± 2.6; in data set [2] (283.15 K) it was 61.5 ± 3.7; in data set [2] (293.15 K) it was 73.9 ± 4.4; in data set [2] (303.15 K), 86.5 ± 5.2; in data set [2] (313.15 K) it was 96.6 ± 5.8; in data set [2] (323.15 K), 104 ± 6. Moreover, the activity coefficient in data set [2] (333.15 K) was determined as 110 ± 7; in data set [2] (343.15 K) it was 111 ± 7; in data set [2] (353.15 K) it was 107 ± 6; in data set [2] (371.15 K) it was 108 ± 7.
Regarding `CC(C)CCO` [3-methylbutan-1-ol] + O, the activity coefficient is 94.9 ± 5.7 in data set [2] (273.35 K); 126 ± 8 in data set [2] (283.15 K); 148 and 146 in data set [2] (293.15 K); 161 and 164 in data set [2] (303.15 K); 173 and 175 in data set [2] (313.15 K); 179 and 184 in data set [2] (323.15 K). Also, the activity coefficient in data set [2] (333.15 K) was 182 and 178; in data set [2] (343.15 K) it was 179 ± 11; in data set [2] (353.15 K), 164 ± 10; in data set [2] (371.15 K) it was 149 ± 9.
Regarding `CCC(O)CC` [3-pentanol] + O, the activity coefficient in data set [2] (273.35 K) was found to be 48.7 ± 2.9; in data set [2] (283.15 K), 63.1 ± 3.8; in data set [2] (293.15 K), 75.6 ± 4.5; in data set [2] (303.15 K), 88.7 ± 5.3; in data set [2] (313.15 K), 101 ± 6; in data set [2] (323.15 K), 108 ± 7. For the same compound, the activity coefficient in data set [2] (333.15 K) was found to be 116 ± 7; in data set [2] (343.15 K), 111 ± 7; in data set [2] (353.15 K), 120 ± 7; in data set [2] (363.15 K), 117 ± 7; in data set [2] (371.15 K), 104 ± 6.
In the case of `CCCC(C)O` (stereo unspecified) [pentan-2-ol] + O, the activity coefficient was 58.8 ± 3.5 in data set [2] (273.35 K); 73.9 ± 4.4 in data set [2] (283.15 K); 89.2 and 86.1 in data set [2] (293.15 K); 104 and 103 in data set [2] (303.15 K); 119 ± 7 in data set [2] (313.15 K); 129 ± 8 in data set [2] (323.15 K). Besides, the activity coefficient was 134 ± 8 in data set [2] (333.15 K); 134 ± 8 in data set [2] (343.15 K); 124 ± 7 in data set [2] (353.15 K); 130 ± 8 in data set [2] (363.15 K); 118 ± 7 in data set [2] (371.15 K).
